Assay results: ChEMBL document CHEMBL3632570, “Structure-Guided Design of Novel l-Cysteine Derivatives as Potent KSP Inhibitors” (ACS Med Chem Lett, 2015)
The source made the active and inactive calls. No cut-off for these calls is given here.

What was measured:
Mus musculus [1] = assay: Toxicity in athymic nude BALB/cAJcL mouse xenografted with HCT116 cells assessed as body weight loss at 25 mg/kg, iv administered on days 1,3,5,8,10 and 12 relative to vehicle-treated control; type: organism-based, HCT-116; details: in vivo
[2] = biological target: T1, Kinesin-like protein KIFC3 (Homo sapiens) (UniProt Q9BVG8); assay: Inhibition of microtubule-stimulated KIFC3 motor domain (303 to 638) (unknown origin) ATPase activity at 6.3 uM
T1 sequence (whole entry): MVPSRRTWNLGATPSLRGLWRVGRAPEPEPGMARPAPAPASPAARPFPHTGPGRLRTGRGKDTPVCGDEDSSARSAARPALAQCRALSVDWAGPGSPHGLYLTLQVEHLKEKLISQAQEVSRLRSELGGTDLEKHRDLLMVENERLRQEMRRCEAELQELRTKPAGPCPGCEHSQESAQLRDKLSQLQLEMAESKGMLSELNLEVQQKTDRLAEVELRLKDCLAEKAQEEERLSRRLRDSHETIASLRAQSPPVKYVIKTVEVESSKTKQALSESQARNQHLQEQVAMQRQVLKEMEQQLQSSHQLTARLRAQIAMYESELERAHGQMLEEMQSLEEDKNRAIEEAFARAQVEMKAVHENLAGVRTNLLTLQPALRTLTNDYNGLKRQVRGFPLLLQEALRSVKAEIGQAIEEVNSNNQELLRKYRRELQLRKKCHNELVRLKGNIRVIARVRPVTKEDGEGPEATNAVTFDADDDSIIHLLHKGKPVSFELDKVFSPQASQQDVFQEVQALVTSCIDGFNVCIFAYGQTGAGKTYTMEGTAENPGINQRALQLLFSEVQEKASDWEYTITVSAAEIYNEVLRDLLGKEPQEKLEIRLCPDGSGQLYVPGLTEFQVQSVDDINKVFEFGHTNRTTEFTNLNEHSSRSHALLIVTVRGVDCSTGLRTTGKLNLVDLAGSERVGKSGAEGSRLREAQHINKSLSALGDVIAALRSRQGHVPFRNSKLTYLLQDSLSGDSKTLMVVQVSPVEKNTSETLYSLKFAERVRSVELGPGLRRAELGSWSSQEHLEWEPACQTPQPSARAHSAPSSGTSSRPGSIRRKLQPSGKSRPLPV

[3] = biological target: T2, Kinesin-like protein KIF11 (Homo sapiens) (UniProt P52732)
T2 sequence (whole entry): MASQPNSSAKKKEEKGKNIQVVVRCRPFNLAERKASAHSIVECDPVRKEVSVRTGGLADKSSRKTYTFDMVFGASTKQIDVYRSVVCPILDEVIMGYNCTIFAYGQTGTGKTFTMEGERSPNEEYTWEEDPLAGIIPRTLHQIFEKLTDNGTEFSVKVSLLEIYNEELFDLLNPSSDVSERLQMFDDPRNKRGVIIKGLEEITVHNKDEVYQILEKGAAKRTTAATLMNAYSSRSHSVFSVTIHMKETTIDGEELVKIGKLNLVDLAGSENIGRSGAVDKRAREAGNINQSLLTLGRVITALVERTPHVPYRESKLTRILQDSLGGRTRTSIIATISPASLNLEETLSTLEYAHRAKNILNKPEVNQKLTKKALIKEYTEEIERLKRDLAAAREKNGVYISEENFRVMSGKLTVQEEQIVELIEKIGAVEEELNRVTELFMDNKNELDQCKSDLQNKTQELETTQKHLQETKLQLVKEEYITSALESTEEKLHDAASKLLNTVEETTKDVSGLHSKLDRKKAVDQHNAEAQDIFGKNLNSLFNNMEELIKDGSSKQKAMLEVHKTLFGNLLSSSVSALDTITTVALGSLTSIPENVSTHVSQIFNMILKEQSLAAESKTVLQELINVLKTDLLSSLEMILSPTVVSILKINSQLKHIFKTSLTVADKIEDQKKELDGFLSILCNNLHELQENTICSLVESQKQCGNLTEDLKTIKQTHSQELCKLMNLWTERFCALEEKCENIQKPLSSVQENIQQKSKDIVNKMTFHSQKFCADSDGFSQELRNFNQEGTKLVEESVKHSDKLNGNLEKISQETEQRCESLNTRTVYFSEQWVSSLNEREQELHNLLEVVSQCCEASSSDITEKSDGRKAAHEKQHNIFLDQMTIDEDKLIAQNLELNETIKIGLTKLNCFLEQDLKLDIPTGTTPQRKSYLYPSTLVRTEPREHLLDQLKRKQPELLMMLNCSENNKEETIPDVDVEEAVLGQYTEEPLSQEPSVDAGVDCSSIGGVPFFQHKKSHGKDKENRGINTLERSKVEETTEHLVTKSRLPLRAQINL
Description: Binding affinity to KSP motor domain (unknown origin) assessed as change in melting temperature at 100 uM by differential scanning fluorimetry in presence of 1 mM ATP

[4] = biological target: Centromere-associated protein E (Homo sapiens) (UniProt Q02224); assay: Inhibition of microtubule-stimulated CENP-E motor domain (1 to 339) (unknown origin) ATPase activity at 6.3 uM
Sequence of Centromere-associated protein E (Homo sapiens) (Q02224 whole entry, the tested form may be a part): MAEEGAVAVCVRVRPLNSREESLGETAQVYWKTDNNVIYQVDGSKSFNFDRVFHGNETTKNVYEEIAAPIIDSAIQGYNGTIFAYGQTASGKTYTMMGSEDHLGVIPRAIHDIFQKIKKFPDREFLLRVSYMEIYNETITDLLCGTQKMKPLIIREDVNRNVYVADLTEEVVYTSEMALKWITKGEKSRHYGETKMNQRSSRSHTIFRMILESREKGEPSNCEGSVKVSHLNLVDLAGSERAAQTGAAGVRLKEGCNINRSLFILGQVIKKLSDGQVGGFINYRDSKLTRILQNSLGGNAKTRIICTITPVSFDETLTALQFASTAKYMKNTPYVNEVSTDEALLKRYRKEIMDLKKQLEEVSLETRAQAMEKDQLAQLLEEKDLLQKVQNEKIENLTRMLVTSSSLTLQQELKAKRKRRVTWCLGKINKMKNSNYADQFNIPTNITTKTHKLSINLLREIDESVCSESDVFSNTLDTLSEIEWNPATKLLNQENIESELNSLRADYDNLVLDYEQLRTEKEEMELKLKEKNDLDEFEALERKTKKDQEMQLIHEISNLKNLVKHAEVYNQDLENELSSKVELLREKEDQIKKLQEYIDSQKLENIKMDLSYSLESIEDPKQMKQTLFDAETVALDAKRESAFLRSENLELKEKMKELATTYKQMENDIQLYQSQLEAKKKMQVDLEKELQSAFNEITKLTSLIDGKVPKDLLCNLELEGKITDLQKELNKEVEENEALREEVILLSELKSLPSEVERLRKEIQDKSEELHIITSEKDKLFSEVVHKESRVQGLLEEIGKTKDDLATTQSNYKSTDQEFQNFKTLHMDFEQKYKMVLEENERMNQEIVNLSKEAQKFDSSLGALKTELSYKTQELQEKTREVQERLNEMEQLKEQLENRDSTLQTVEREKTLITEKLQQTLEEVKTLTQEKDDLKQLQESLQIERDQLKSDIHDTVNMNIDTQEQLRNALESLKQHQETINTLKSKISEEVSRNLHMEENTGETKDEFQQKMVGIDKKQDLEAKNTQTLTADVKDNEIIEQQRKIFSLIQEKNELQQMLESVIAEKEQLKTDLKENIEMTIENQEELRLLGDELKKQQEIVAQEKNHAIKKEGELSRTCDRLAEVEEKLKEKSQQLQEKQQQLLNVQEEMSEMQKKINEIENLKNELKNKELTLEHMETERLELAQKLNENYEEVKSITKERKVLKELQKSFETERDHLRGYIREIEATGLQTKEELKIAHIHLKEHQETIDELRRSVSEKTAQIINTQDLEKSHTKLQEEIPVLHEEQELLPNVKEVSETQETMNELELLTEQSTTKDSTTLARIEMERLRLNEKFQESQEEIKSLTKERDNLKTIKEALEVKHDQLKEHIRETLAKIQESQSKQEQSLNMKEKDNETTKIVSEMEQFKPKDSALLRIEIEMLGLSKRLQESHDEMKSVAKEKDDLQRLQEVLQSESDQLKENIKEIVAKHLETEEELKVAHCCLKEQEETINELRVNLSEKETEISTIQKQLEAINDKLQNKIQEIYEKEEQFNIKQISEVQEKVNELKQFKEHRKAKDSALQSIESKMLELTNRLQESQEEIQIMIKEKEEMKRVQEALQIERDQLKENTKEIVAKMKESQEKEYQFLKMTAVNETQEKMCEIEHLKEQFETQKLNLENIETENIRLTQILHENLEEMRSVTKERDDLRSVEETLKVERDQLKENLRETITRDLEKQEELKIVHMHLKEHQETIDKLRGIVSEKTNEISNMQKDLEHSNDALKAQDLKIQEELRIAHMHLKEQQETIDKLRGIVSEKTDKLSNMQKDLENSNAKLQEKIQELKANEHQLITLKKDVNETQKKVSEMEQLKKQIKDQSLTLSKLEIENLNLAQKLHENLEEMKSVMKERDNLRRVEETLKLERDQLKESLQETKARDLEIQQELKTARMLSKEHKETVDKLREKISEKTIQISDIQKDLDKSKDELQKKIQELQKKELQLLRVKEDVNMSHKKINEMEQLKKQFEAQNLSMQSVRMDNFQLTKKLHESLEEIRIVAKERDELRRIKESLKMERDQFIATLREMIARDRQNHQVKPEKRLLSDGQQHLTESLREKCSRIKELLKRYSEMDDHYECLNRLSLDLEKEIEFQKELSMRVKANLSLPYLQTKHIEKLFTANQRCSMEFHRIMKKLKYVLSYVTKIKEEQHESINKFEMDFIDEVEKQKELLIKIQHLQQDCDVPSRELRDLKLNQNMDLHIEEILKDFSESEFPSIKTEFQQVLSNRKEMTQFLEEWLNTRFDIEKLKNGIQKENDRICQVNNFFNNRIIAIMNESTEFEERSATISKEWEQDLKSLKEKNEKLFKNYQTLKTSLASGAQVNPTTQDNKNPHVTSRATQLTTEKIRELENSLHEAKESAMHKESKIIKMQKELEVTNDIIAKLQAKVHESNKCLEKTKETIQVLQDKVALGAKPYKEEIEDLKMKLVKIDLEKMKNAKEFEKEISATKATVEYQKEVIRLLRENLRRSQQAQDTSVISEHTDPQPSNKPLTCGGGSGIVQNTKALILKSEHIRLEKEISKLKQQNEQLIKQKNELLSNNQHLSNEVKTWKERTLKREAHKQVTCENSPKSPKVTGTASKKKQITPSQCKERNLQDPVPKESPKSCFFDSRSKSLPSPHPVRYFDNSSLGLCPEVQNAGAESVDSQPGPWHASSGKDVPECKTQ

HeLa [5] = assay: Cell cycle arrest at mitotic phase in human HeLa cells assessed as formation of monopolar spindles at 40 nM after 6 hrs by DAPI staining-based microscopic analysis; type: functional
HCT-116 [6] = assay: Antitumor activity against human HCT116 cells xenografted in athymic nude BALB/cAJcL mouse assessed as inhibition of tumor growth at 75 mg/kg, iv administered on days 1,3,5,8,10 and 12 measured on day 15; type: functional
Mus musculus [7] = assay: Toxicity in athymic nude BALB/cAJcL mouse xenografted with HCT116 cells assessed as mortality at 75 mg/kg, iv administered on days 1,3,5,8,10 and 12; type: organism-based, HCT-116; details: in vivo
HeLa [8] = assay: Cell cycle arrest at mitotic phase in human HeLa cells assessed as mitotic index after 6 hrs; type: functional
HCT-116 [9] = assay: Antitumor activity against human HCT116 cells xenografted in iv dosed athymic nude BALB/cAJcL mouse assessed as inhibition of tumor growth drug administered on days 1,3,5,8,10 and 12 measured on day 15; type: functional, organism-based

SMILES: COc1ccc(C2(SC[C@H](N)C(=O)O)c3ccccc3CCc3ccccc32)cc1
- Activity (Mus musculus [1]): Toxic
- inhibition [2]: inactive
- ΔTm [3]: 12 °C
- inhibition [4]: inactive

SMILES: N[C@@H](CSC1(c2ccc(C(F)(F)F)cc2)c2ccccc2CCc2ccccc21)C(=O)O
- Activity (HeLa [5]): Active
- Activity (Mus musculus [1]): Toxic
- T/C (HCT-116 [6]): 9%
- Activity (Mus musculus [7]): Non-toxic
- inhibition [2]: inactive
- MI50 (HeLa [8]): 14 nM
- inhibition [4]: inactive
- TGI (HCT-116 [9]): Dose-dependent effect
